{"source": "paper PMC10752957", "about": "“GABAA receptors as plausible molecular targets and mediators for taurine and homotaurine actions” (Frontiers in Pharmacology, 2023)", "key": {"[1]": {"system": "native GABAARs in cerebellar granule cells", "assay": "Whole-cell patch clamp of cerebellar granule cells in mouse brain slices, cumulative concentration-response", "format": "cell-based", "conditions": "for Concentration at which currents reach saturation / Threshold concentration for eliciting currents: cumulative application; for Hill slope of the concentration-response curve: normalized concentration-response curves; for Hill slope of the concentration-response curve / Maximal current response (Imax ± SEM) / EC50: n = 7; for Maximal current response (Imax ± SEM): 1 mM HT, 3 mM taurine, 3 mM GABA; for EC50: read-out: EC50 for evoking GABAAR-mediated current, CGCs held at −70 mV, 10 μM DNQX, 0.3 μM TTX, room temperature, mean ± SEM"}, "[2]": {"system": "ρ1-GABAARs", "parameters": "method as in Ochoa-de la Paz et al., 2018", "conditions": "expressed in oocytes, ref Ochoa-de la Paz et al., 2018, cited from earlier work"}, "[3]": {"system": "primary cultured neurons", "parameters": "method as in Gervais et al., 2007", "conditions": "100 μM HT; ref Gervais et al., 2007; cited from earlier work"}, "[4]": {"molecular_target": "mouse brain native GABAARs", "assay": "5 nM [3H]muscimol displacement from mouse brain (sans cerebellum) membranes", "format": "binding", "conditions": "n = 9; for IC50: 5 nM [3H]muscimol, mean ± SEM, read-out: IC50 for displacing [3H]muscimol binding", "procedure": "Adult mouse brain (sans cerebellum) membrane pellets were prepared essentially as described by [Uusi-Oukari et al. (2014)], suspended in 50 mM Tris-HCl, pH 7.4 (assay buffer) and frozen at −80°C. For binding experiments, the suspension was thawed and washed by centrifugation/resuspension in assay buffer. 5 nM [^3H]muscimol binding was measured in assay buffer at room temperature (RT, ∼22°C) in a total volume of 300 µL. […] After 20 min incubation at room temperature the membranes were collected with a Brandel Cell Harvester (Model M-24, Gaithersburg, MD, United States) onto Whatman GF/B filters (Whatman International Ltd., Maidstone, United Kingdom). The samples were rinsed twice with 4–5 mL of ice-cold assay buffer. Filtration and rinsing steps took a total time of ∼15 s. Air-dried filters were immersed in 3 mL of Optiphase HiSafe 3 scintillation fluid (Wallac, Turku, Finland) and radioactivity determined in a Hidex 600 SL liquid scintillation counter (Hidex, Turku, Finland). [^3H]Muscimol displacement and electrophysiology data were analyzed with GraphPad Prism 7 software (GraphPad, San Diego, CA, United States). Data are presented as mean ± standard error of mean (SEM). Statistical data analysis was performed with a Student’s t-test (two-tailed distribution, unequal variance) in Microsoft Excel."}, "[5]": {"system": "rat", "parameters": "method as in Olive et al., 2002", "conditions": "fold lower doses than acetyl-HT, rat models; ref Olive et al., 2002; cited from earlier work"}, "[6]": {"system": "GABAAR", "parameters": "method as in Allan and Harris, 1986", "conditions": "ref Allan and Harris, 1986; cited from earlier work"}, "[7]": {"parameters": "method as in Hey et al., 2018", "conditions": "ref Hey et al., 2018; cited from earlier work"}, "[8]": {"system": "strychnine-sensitive glycine receptors", "parameters": "method as in Jia et al., 2008", "conditions": "ref Jia et al., 2008; cited from earlier work"}, "[9]": {"system": "GABAARs in thalamocortical relay neurons", "parameters": "method as in Jia et al., 2008", "conditions": "ref Jia et al., 2008; cited from earlier work"}, "[10]": {"system": "chick embryonic neuronal cultures", "parameters": "method as in Louzada et al., 2004", "conditions": "1 mM taurine; ref Louzada et al., 2004; cited from earlier work"}, "[11]": {"system": "mice", "parameters": "method as in Singh et al., 2023", "conditions": "taurine 1 g/kg per day, ref Singh et al., 2023; cited from earlier work"}, "[12]": {"system": "rat brain GABAARs", "parameters": "method as in Bureau and Olsen, 1991", "conditions": "ref Bureau and Olsen, 1991, read-out: Average IC50 for displacing [3H]muscimol; cited from earlier work"}}, "note": "Several values for one entry are separate records, joined by “and”; a condition that tells them apart may be missing. Equal entries are not always repeated. Where two headings read alike, the source gives them in different places.", "data": [{"smiles": "NCCCC(=O)O", "note": "[GABA]", "values": [{"measurement": "Concentration at which currents reach saturation", "setting": "[1]", "result": "~1", "unit": "mM"}, {"measurement": "Threshold concentration for eliciting currents", "setting": "[1]", "result": 300, "unit": "nM"}, {"measurement": "Hill slope of the concentration-response curve", "setting": "[1]", "result": "0.92 ± 0.13"}]}, {"smiles": "COc1ccc(-c2ccc(=N)n(CCCC(=O)O)n2)cc1", "note": "[Gabazine]", "values": [{"measurement": "Block of currents evoked by 1 mM HT, 3 mM taurine and 3 mM GABA", "setting": "[1]; applied together with saturating agonist", "result": "completely blocks"}]}, {"smiles": "NCCCS(=O)(=O)O", "note": "[HT, Homotaurine]", "values": [{"measurement": "Type of agonism on recombinant ρ1-GABAARs", "setting": "[2]", "result": "partial agonist"}, {"measurement": "EC50", "setting": "[2]; read-out: EC50 on recombinant ρ1-GABAARs", "result": "~300000", "unit": "nM"}, {"measurement": "Effect on neuronal death induced by 5 μM Aβ42", "setting": "[3]", "result": "inhibited"}, {"measurement": "IC50", "setting": "[4]", "result": "158 ± 10", "unit": "nM"}, {"measurement": "IC50", "setting": "[4]; room temperature, listed as Homotaurine", "result": "158 ± 10", "unit": "nM"}, {"measurement": "IC50", "setting": "[4]; room temperature", "result": "160 nM and 158 nM and ~200 nM"}, {"measurement": "Hill slope of the [3H]muscimol displacement curve", "setting": "[4]", "result": "−0.79 ± 0.04"}, {"measurement": "Dose that reduces alcohol intake, relative to acetyl-HT", "setting": "[5]", "result": "~10", "unit": "fold"}, {"measurement": "Concentration that stimulates GABAAR-mediated chloride flux", "setting": "[6]", "result": "≥ 100", "unit": "µM"}, {"measurement": "Maximal current response (Imax ± SEM)", "setting": "[1]", "result": "−75 ± 7", "unit": "pA"}, {"measurement": "Concentration at which currents reach saturation", "setting": "[1]", "result": "around 10 µM"}, {"measurement": "Threshold concentration for eliciting currents", "setting": "[1]", "result": "~100", "unit": "nM"}, {"measurement": "Hill slope of the concentration-response curve", "setting": "[1]", "result": "0.79 ± 0.05"}, {"measurement": "EC50", "setting": "[1]", "result": "400 nM and 425 nM and ~400 nM"}, {"measurement": "Potency relative to GABA", "setting": "[1]; times more potent than GABA", "result": "about 10 times"}, {"measurement": "Sensitivity of native CGC GABAARs relative to recombinant ρ1-GABAARs", "setting": "[1]; times more sensitive to HT", "result": "about 1000 times"}, {"measurement": "Estimated average total brain 14C-HT", "setting": "[7]", "result": 0.55, "unit": "µM"}]}, {"smiles": "NCCS(=O)(=O)O", "note": "[taurine, Taurine]", "values": [{"measurement": "Concentration that also activates strychnine-sensitive glycine receptors", "setting": "[8]", "result": "> 100", "unit": "µM"}, {"measurement": "Concentration that activates GABAARs", "setting": "[9]", "result": "≥ 10", "unit": "µM"}, {"measurement": "Effect on neurotoxicity of 44 μM Aβ42 and glutamate receptor agonists", "setting": "[10]", "result": "prevented"}, {"measurement": "Increase in life span", "setting": "[11]", "result": 10, "unit": "%"}, {"measurement": "IC50", "setting": "[4]; room temperature", "result": 125000, "unit": "nM"}, {"measurement": "Hill slope of the [3H]muscimol displacement curve", "setting": "[4]", "result": "−0.86 ± 0.04"}, {"measurement": "Maximal current response (Imax ± SEM)", "setting": "[1]", "result": "−67 ± 7", "unit": "pA"}, {"measurement": "Concentration at which currents reach saturation", "setting": "[1]", "result": "around 3 mM"}, {"measurement": "Threshold concentration for eliciting currents", "setting": "[1]", "result": "around 10 μM"}, {"measurement": "Hill slope of the concentration-response curve", "setting": "[1]", "result": "0.87 ± 0.06"}, {"measurement": "EC50", "setting": "[1]", "result": 116000, "unit": "nM"}, {"measurement": "IC50", "setting": "[12]", "result": "~50000", "unit": "nM"}]}]}
